Values quoted from earlier work, collected in patent publication US8063151B2, “Methods for manufacturing copolymers having 1-methyl-2-methoxyethyl moieties and use of same” (Abbott Laboratories, priority 2006, dated 2011).

Details: comparison with ethanol

COCC(C)O (stereo not shown) [1-methoxy-2-propanol]
toxicity compared with other solvents: in a range more similar to ethanol
